Source: patent US10308652B2, “Tricyclic heterocyclic compounds useful as inhibitors of TNF” (BRISTOL-MYERS SQUIBB COMPANY, priority 2015, dated 2019)

Target: TNFα (Homo sapiens (Human), UniProt P01375)
Test: TNF induced HEK-Blue assay
Type: cell-based
Details: TNFα 0.5 ng/ml; HEK-Blue-CD40L cells, NF-κB-driven secreted alkaline phosphatase reporter; 18 h
Method: TNF or CD40L-induced HEK-Blue Assay Test compounds serially diluted in DMSO were plated in an assay plate (Labcyte, Cat. #LP-0200) at final concentrations ranging from 0.004 μM to 25μM. TNFα (final concentration 0.5 ng/ml) or CD4OL (final concentration 30 ng/ml) in assay buffer [DMEM, 4.5 g/l glucose (Gibco, Cat. 21063-029), 10% FBS (Sigma, F4135), 1% Penicillin-Streptomycin (Gibco, Cat. 15140-122), 1% Anti-Anti (Gibco, Cat. 15240-112) and 2 mM L-glutamine (Gibco, Cat. 25030-081)] was then added to the assay plate. After a 30 minute pre-incubation at 37° C. and 5% CO2, HEK-Blue-CD40L cells (InvivoGen, Cat. Code hkb-cd40) containing a NF-κB-driven secreted alkaline phosphatase reporter gene were seeded into the assay plate at a density of 20,000 cells per well. This plate was then incubated for 18 h at 37° C. and 5% CO2. Secreted alkaline phosphatase expression was measured using QUANTI-Blue (InvivoGen, Cat. Code rep-qb1) according to manufacturer's specifications and the assay plate was read on a PerkinElmer Envision at 620 nm. Inhibition data for the test compound over a range of concentrations was plotted as percentage inhibition of the test compound (100%=maximum inhibition). IC50 values were determined after correcting for background [(sample read−mean of low control)/(mean of high control−mean of low control)] where by the low control is DMSO without stimulation and high control is DMSO with stimulation. The IC50 is defined as the concentration of test compound which produces 50% inhibition and was quantified using the 4 parameter logistic equation to fit the data.

Sequence of TNFα (P01375 77-233): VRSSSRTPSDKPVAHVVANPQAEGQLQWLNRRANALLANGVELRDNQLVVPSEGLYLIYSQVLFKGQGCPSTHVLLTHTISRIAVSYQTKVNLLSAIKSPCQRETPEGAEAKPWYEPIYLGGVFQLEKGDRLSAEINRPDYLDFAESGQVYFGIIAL

Row | Compound | IC50
1 | CC(C)(O)c1ccc(-c2ccc3nc4c(n3n2)[C@H](c2cc(Cl)ccc2OC(F)F)NC[C@H]4O)cc1 (racemic) [Example 28, (+/−)-trans-9-(5-chloro-2-(difluoromethoxy)phenyl)-2-(4-(2-hydroxypropan-2-yl)phenyl)-6,7,8,9-tetrahydropyrido[4′,3′:4,5]imidazo[1,2-b]pyridazin-6-ol] | 1000 to 10000 nM
2 | CCc1ccccc1[C@H]1NC[C@@H](O)c2nc3ccc(-c4ccc(C(C)(C)O)cc4)nn3c21 (racemic) [Example 25, (+/−)-cis-9-(2-ethylphenyl)-2-(4-(2-hydroxypropan-2-yl)phenyl)-6,7,8,9-tetrahydropyrido[4′,3′:4,5]imidazo[1,2-b]pyridazin-6-ol] | 1000 to 10000 nM
3 | CC(C)(O)c1ccc(-c2ccc3nc4c(n3n2)C(c2ccccc2OC(F)(F)F)NCC4O)cc1 (centres unmarked) [Example 26, 2-(4-(2-hydroxypropan-2-yl)phenyl)-9-(2-(trifluoromethoxy)phenyl)-6,7,8,9-tetrahydropyrido [4′,3′:4,5]imidazo[1,2-b]pyridazin-6-ol] | < 1000 nM
4 | CC(C)(O)c1ncc(-c2ccc3nc4c(n3n2)C(c2ccccc2OC(F)F)NCC4O)cn1 (centres unmarked) [Example 17, 9-(2-(difluoromethoxy)phenyl)-2-(2-(2-hydroxypropan-2-yl)pyrimidin-5-yl)-6,7,8,9-tetrahydropyrido[4′,3′:4,5]imidazo[1,2-b]pyridazin-6-ol] | 1000 to 10000 nM
5 | CC(C)(O)c1ccc(-c2ccc3nc4c(n3n2)[C@@H](c2ccccc2OC(F)F)NC[C@@H]4O)cc1 [Example 15, trans-(6S,9R)-9-(2-(difluoromethoxy)phenyl)-2-(4-(2-hydroxypropan-2-yl)phenyl)-6,7,8,9-tetrahydropyrido [4′,3′:4,5]imidazo[1,2-b]pyridazin-6-ol] | 1000 to 10000 nM
6 | (+/−)-cis-9-(2-(difluoromethoxy)phenyl)-2-(4-(3-hydroxypentan-3-yl)phenyl)-6,7,8,9-tetrahydropyrido[4′,3′:4,5]imidazo[1,2-b]pyridazin-6-ol [Example 49] | 1000 to 10000 nM
7 | CCCOc1ccc(-c2ccc3nc4c(n3n2)[C@@H](c2ccccc2OC(F)F)NC[C@H]4O)cc1 (racemic) [Example 33, (+/−)-cis-9-(2-(difluoromethoxy)phenyl)-2-(4-propoxyphenyl)-6,7,8,9-tetrahydropyrido [4′,3′:4,5]imidazo[1,2-b]pyridazin-6-ol] | < 1000 nM
8 | COCCOc1ccc(-c2ccc3nc4c(n3n2)[C@@H](c2ccccc2OC(F)F)NC[C@H]4O)cc1 (racemic) [Example 34, (+/−)-cis-9-(2-(difluoromethoxy)phenyl)-2-(4-(2-methoxyethoxy)phenyl)-6,7,8,9-tetrahydropyrido[4′,3′:4,5]imidazo[1,2-b]pyridazin-6-ol] | 1000 to 10000 nM
9 | CC(C)COc1ccc(-c2ccc3nc4c(n3n2)[C@@H](c2ccccc2OC(F)F)NC[C@H]4O)cc1 (racemic) [Example 27, (+/−)-cis-9-(2-(difluoromethoxy)phenyl)-2-(4-isobutoxyphenyl)-6,7,8,9-tetrahydropyrido[4′,3′:4,5]imidazo[1,2-b]pyridazin-6-ol] | 1000 to 10000 nM
10 | (+/−)-cis-9-(2-(difluoromethoxy)phenyl)-2-(4-morpholinophenyl)-6,7,8,9-tetrahydropyrido[4′,3′:4,5]imidazo[1,2-b]pyridazin-6-ol [Example 45] | 1000 to 10000 nM
11 | O=C(c1ccc(-c2ccc3nc4c(n3n2)C(c2ccccc2OC(F)F)NCC4O)cc1)N1CCOCC1 (centres unmarked) [Example 19, (4-(9-(2-(difluoromethoxy)phenyl)-6-hydroxy-6,7,8,9-tetrahydropyrido[4′,3′:4,5]imidazo[1,2-b]pyridazin-2-yl)phenyl)(morpholino)methanone] | 1000 to 10000 nM
12 | CC(C)(O)c1ccc(-c2ccc3nc4c(n3n2)[C@@H](c2ccccc2OC(F)F)NC[C@H]4F)cc1 [Example 13, cis-(1R,4R)-2-(4-(9-(2-(difluoromethoxy)phenyl)-6-fluoro-6,7,8,9-tetrahydropyrido[4′,3′:4,5]imidazo[1,2-b]pyridazin-2-yl)phenyl)propan-2-ol] | < 1000 nM
13 | CC(C)(O)c1ccc(-c2ccc3nc4c(n3n2)[C@H](c2ccccc2OC(F)F)NC[C@@H]4F)cc1 (racemic) [Example 8, (+/−)-Cis-2-(4-((6S,9S)-9-(2-(difluoromethoxy)phenyl)-6-fluoro-6,7,8,9-tetrahydropyrido [4′,3′:4,5]imidazo[1,2-b]pyridazin-2-yl)phenyl)propan-2-ol] | < 1000 nM
14 | CC(C)(O)c1ccc(-c2ccc3nc4c(n3n2)[C@H](c2ccccc2OC(F)F)NC[C@H]4O)cc1 [Example 5, (+/−)-Cis and trans-9-(2-(difluoromethoxy)phenyl)-2-(4-(2-hydroxypropan-2-yl)phenyl)-6,7,8,9-tetrahydropyrido[4′,3′:4,5]imidazo[1,2-b]pyridazin-6-ol] | 1000 to 10000 nM
15 | (+/−)-cis-9-(2-(difluoromethoxy)phenyl)-2-(4-(2-hydroxybutan-2-yl)phenyl)-6,7,8,9-tetrahydropyrido[4′,3′:4,5]imidazo[1,2-b]pyridazin-6-ol [Example 50] | 1000 to 10000 nM
16 | CC(C)(O)c1ccc(-c2ccc3nc4c(n3n2)[C@H](c2ccccc2OC(F)F)NC[C@@H]4O)cc1 [Example 7, Cis-(6S,9S)-9-(2-(difluoromethoxy)phenyl)-2-(4-(2-hydroxypropan-2-yl)phenyl)-6,7,8,9-tetrahydropyrido[4′,3′:4,5]imidazo[1,2-b]pyridazin-6-ol] | 1000 to 10000 nM
17 | CC(C)(O)c1ncc(-c2ccc3nc4c(n3n2)C(c2ccccc2OC(F)F)NCC4)cn1 (racemic) [Example 3, (+/−)-2-(5-(9-(2-(Difluoromethoxy)phenyl)-6,7,8,9-tetrahydropyrido[4′,3′:4,5]imidazo[1,2-b]pyridazin-2-yl)pyrimidin-2-yl)propan-2-ol] | 1000 to 10000 nM
18 | CC(C)(O)c1ccc(-c2ccc3nc4c(n3n2)[C@H](c2ccccc2OC(F)F)NC[C@H]4O)cc1 [Example 14, trans-(6R,9S)-9-(2-(difluoromethoxy)phenyl)-2-(4-(2-hydroxypropan-2-yl)phenyl)-6,7,8,9-tetrahydropyrido[4′,3′:4,5]imidazo[1,2-b]pyridazin-6-ol] | 1000 to 10000 nM

More lines, now with the values ahead:

Row | IC50 | Compound
19 | 1000 to 10000 nM | CS(=O)(=O)c1ccc(-c2ccc3nc4c(n3n2)[C@@H](c2ccccc2OC(F)F)NC[C@H]4O)cc1 (racemic) [Example 41, (+/−)-cis-9-(2-(difluoromethoxy)phenyl)-2-(4-(methylsulfonyl)phenyl)-6,7,8,9-tetrahydropyrido[4′,3′:4,5]imidazo[1,2-b]pyridazin-6-ol]
20 | 1000 to 10000 nM | COc1ccccc1COc1ccc(-c2ccc3nc4c(n3n2)[C@@H](c2ccccc2OC(F)F)NC[C@H]4O)cc1 (racemic) [Example 37, (+/−)-cis-9-(2-(difluoromethoxy)phenyl)-2-(4-((2-methoxybenzyl)oxy)phenyl)-6,7,8,9-tetrahydropyrido[4′,3′:4,5]imidazo[1,2-b]pyridazin-6-ol]
21 | 1000 to 10000 nM | O[C@@H]1CN[C@H](c2ccccc2OC(F)F)c2c1nc1ccc(-c3ccc(C4(O)CC4)cc3)nn21 (racemic) [Example 36, (+/−)-cis-9-(2-(difluoromethoxy)phenyl)-2-(4-(1-hydroxycyclopropyl)phenyl)-6,7,8,9-tetrahydropyrido [4′,3′:4,5]imidazo[1,2-b]pyridazin-6-ol]
22 | < 1000 nM | CC(C)(O)c1ccc(-c2ccc3nc4c(n3n2)C(c2ccccc2OC(F)F)OCC4)cc1 (centres unmarked) [Example 62, 2-(4-(9-(2-(Difluoromethoxy)phenyl)-7,9-dihydro-6H-pyrano[4′,3′:4,5]imidazo[1,2-b]pyridazin-2-yl)phenyl)propan-2-ol]
23 | < 1000 nM | CC(C)(C)COc1ccc(-c2ccc3nc4c(n3n2)[C@@H](c2ccccc2OC(F)F)NC[C@H]4O)cc1 (racemic) [Example 42, (+/−)-cis-9-(2-(difluoromethoxy)phenyl)-2-(4-(neopentyloxy)phenyl)-6,7,8,9-tetrahydropyrido[4′,3′:4,5]imidazo[1,2-b]pyridazin-6-ol]
24 | 1000 to 10000 nM | Cn1cc(-c2ccc3nc4c(n3n2)C(c2ccccc2OC(F)F)OCC4)cn1 (centres unmarked) [Example 64, 9-(2-(Difluoromethoxy)phenyl)-2-(1-methyl-1H-pyrazol-4-yl)-7,9-dihydro-6H-pyrano[4′,3′:4,5]imidazo[1,2-b]pyridazine]
25 | 1000 to 10000 nM | O=C(c1ccc(-c2ccc3nc4c(n3n2)[C@@H](c2ccccc2OC(F)F)NC[C@H]4O)cc1Cl)N1CCOCC1 (racemic) [Example 47, (+/−)-cis-(2-chloro-4-(9-(2-(difluoromethoxy)phenyl)-6-hydroxy-6,7,8,9-tetrahydropyrido[4′,3′:4,5]imidazo[1,2-b]pyridazin-2-yl)phenyl)(morpholino)methanone]
26 | < 1000 nM | CC(C)(O)c1ccc(-c2ccc3nc4c(n3n2)[C@@H](c2ccc(F)cc2C(F)(F)F)NC[C@H]4O)cc1 (racemic) [Example 39, (+/−)-cis-9-(4-fluoro-2-(trifluoromethyl)phenyl)-2-(4-(2-hydroxypropan-2-yl)phenyl)-6,7,8,9-tetrahydropyrido[4′,3′:4,5]imidazo[1,2-b]pyridazin-6-ol]
